Test results taken from article PMC7795354, “Development of Radiogallium-Labeled Peptides for Platelet-Derived Growth Factor Receptor β (PDGFRβ) Imaging: Influence of Different Linkers” (Molecules, 2020).
“And” between values parts separate entries of the source, which are not always exact repeats. Equal values may be shown once. Read-outs that look alike come from different tables or passages of the source. *1 amine or outer side, *2 acyl side, *3 side chain or, on linkers, in order; H or OH if unused. Where a SMILES comes first, the peptide text is derived from it. Where no end group is shown, it is not given here. [ ]: non-standard residue; d: D form. The star is where a group is joined. DOTA = O=C(O)CN1CCN(CC(=O)O)CCN(CC(=O)*)CCN(CC(=O)O)CC1; NH(CH2CH2O)4CH2CO = O=C(COCCOCCOCCOCCN[*:1])[*:2]; βAla = NCCC(=O)O

Key:
in vitro = settings: mouse, plasma, In vitro stability in murine plasma, percentage of remained intact radiotracer
Description: (§3) Briefly, the solution of radiotracers (37 kBq/well, 50 µL) in a sealed tube containing 0.1 M PBS pH 7.4 (450 µL) was incubated at 37 °C for 24 h. At 3 and 24 h after incubation, the purity of radiotracers was analyzed by RP-HPLC. Meanwhile, for stability assay in murine plasma, radiotracers were mixed in murine plasma at a ratio of 1:10. After incubation at 37 °C for 10 min and 1 h, an equivalent amount of ice-cold acetonitrile was added. After centrifugation at 1000× g at 4 °C for 10 min, the supernatant was filtered through a 0.45-µm filter followed by analyzing using RP-HPLC as described above. Then, the radiochemical purities were determined.

physchem = settings: pH 7.4
Description: (§4) The octanol-water partition coefficients for radiotracers were determined via the assessment of their distribution in n-octanol and PBS (pH 7.4) using shake-flask method as described previously [48]. Radioactivity of each layer was measured using auto well gamma counter (n = 4).

[1] = mouse, 1 h
Description: as §3

[2] = buffer
Description: as §3

[3] = Biodistribution in BxPC3-luc tumor-bearing mice; format: in vivo; settings: female, BALB/c nu/nu, mouse, stomach, iv, 74 kBq, total radioactivity; 1 h post-injection
[4] = test system: BxPC3-luc tumor-bearing mice; experiment: Biodistribution in BxPC3-luc tumor-bearing mice; format: in vivo, BALB/c nu/nu mice; settings: 1 h post-injection, i.v.
Description: (§1) All animal handling procedures were approved by the Kanazawa University Animal Care Committee. Experiments with animals were conducted in accordance with the Guidelines for the Care and Use of Laboratory Animals of Kanazawa University. The animals were housed with free access to food and water at 23 °C with a 12 h light/dark schedule. Four-week-old female BALB/c nu/nu mice (12–17 g) were purchased from Japan SLC Inc. (Hamamatsu, Japan). The tumor-bearing model was prepared by subcutaneous inoculation of 1 × 10^7 BxPC3-luc cells into left shoulder of female BALB/c nu/nu mice. The biodistribution experiment was performed approximately 4–5 weeks post-inoculation.
(§2) A saline solution of [^67Ga]27 or [^67Ga]28 (74 kBq, 100 µL) was injected intravenously into the tail vein of the mice. The mice were sacrificed at 10 min post-injection for [^67Ga]27 and 1 h post-injection for [^67Ga]27 or [^67Ga]28. For in vivo blocking studies, 100 μL of a mixed saline solution of [^67Ga]27 (74 kBq) and IPLPPPRRPFFK peptide (1 mg/mouse) was injected via tile vein into the tumor-bearing mice. The mice were sacrificed at 1 h post-injection. Tissues of interest were removed and weighed. The radioactivity of the tissues was determined using an auto well gamma counter, and counts were corrected for background radiation and physical decay during counting. The data were expressed as percent injected dose per gram tissue (%ID/g).

[5] = Biodistribution in BxPC3-luc tumor-bearing mice; format: in vivo, BALB/c nu/nu mice; settings: female, BALB/c nu/nu, mouse, iv, 74 kBq, total radioactivity, 1 h post-injection; for tissue uptake at 1 h: i.v.
Description: as §1, §2

[6] = In vitro stability in murine plasma; settings: 37 °C
Description: as §3

[7] = In vitro stability in PBS pH 7.4; settings: 37 °C, 0.1 M PBS pH 7.4
Description: as §3

[8] = Octanol-water partition coefficient (log P), shake-flask; settings: n-octanol/PBS, pH 7.4
Description: as §4

PDGFRβ = settings: cited from earlier work
[9] = mouse, plasma, In vitro stability in murine plasma, percentage of remained intact radiotracer, 1 h

Question: With `CC[C@H](C)[C@H](NC(=O)CN1CCN(CC(=O)O)CCN(CC(=O)O)CCN(CC(=O)O)CC1)C(=O)N1CCC[C@H]1C(=O)N[C@@H](CC(C)C)C(=O)N1CCC[C@H]1C(=O)N1CCC[C@H]1C(=O)N1CCC[C@H]1C(=O)N[C@@H](CCCNC(=N)N)C(=O)N[C@@H](CCCNC(=N)N)C(=O)N1CCC[C@H]1C(=O)N[C@@H](Cc1ccccc1)C(=O)N[C@@H](Cc1ccccc1)C(=O)N[C@@H](CCCCN)C(=O)O` [[^67Ga]22, [^67Ga]Ga-DOTA-IPLPPPRRPFFK, metal not drawn] ({DOTA}-IPLPPPRRPFFK-OH) as the molecule, how does the remaining at 1 h (in vitro) read?
Answer: The remaining at 1 h was 35%.

Question: What about the logP (physchem) of the same molecule?
Answer: The logP was under -4.

Question: What about the “In vitro stability in murine plasma, percentage of remained intact radiotracer” value [1] of the same molecule?
Answer: The value was 35.2 ± 1.7%.

Question: And the “In vitro stability in PBS pH 7.4, percentage of remained intact radiotracer” value ([2]; 3 h)?
Answer: Its value is 95.3 ± 2.7%.

Question: What about the “In vitro stability in PBS pH 7.4, percentage of remained intact radiotracer” value ([2]; 24 h) of the same molecule?
Answer: Its value is 94.1 ± 0.6%.

Question: For `CC[C@H](C)[C@H](NC(=O)COCCOCCOCCOCCNC(=O)CN1CCN(CC(=O)O)CCN(CC(=O)O)CCN(CC(=O)O)CC1)C(=O)N1CCC[C@H]1C(=O)N[C@@H](CC(C)C)C(=O)N1CCC[C@H]1C(=O)N1CCC[C@H]1C(=O)N1CCC[C@H]1C(=O)N[C@@H](CCCNC(=N)N)C(=O)N[C@@H](CCCNC(=N)N)C(=O)N1CCC[C@H]1C(=O)N[C@@H](Cc1ccccc1)C(=O)N[C@@H](Cc1ccccc1)C(=O)N[C@@H](CCCCN)C(=O)O` [[^67Ga]28, [^67Ga]Ga-DOTA-EG4-IPLPPPRRPFFK, metal not drawn] ({DOTA}-[NH(CH2CH2O)4CH2CO]IPLPPPRRPFFK-OH), which tissue uptake dose at 1 h [3] is on record?
Answer: The tissue uptake dose at 1 h was 0.01 %ID.

Question: What about the “Biodistribution, Brain” value [4] of the same molecule?
Answer: Its value is 0.00 (0.00) %injected dose/gram tissue.

Question: And the Tumor/Blood ratio [4]?
Answer: Its Tumor/Blood ratio is 2.05 and 2.05 ± 0.77.

Question: And the tissue uptake at 1 h ([5]; blood, read-out: Biodistribution, Blood)?
Answer: The tissue uptake at 1 h was 0.12 %ID/g.

Question: And the tissue uptake at 1 h ([5]; bone, read-out: Biodistribution, Bone)?
Answer: Its tissue uptake at 1 h is 0.1 %ID/g.

Question: And the tissue uptake at 1 h ([5]; heart, read-out: Biodistribution, Heart)?
Answer: Its tissue uptake at 1 h is 0.03 %ID/g.

Question: What about the tissue uptake at 1 h ([5]; BxPC3-luc tumor, read-out: Biodistribution, Tumor) of the same molecule?
Answer: The tissue uptake at 1 h was 0.25 %ID/g.

Question: What about the tissue uptake at 1 h ([5]; kidney, read-out: Biodistribution, Kidney) of the same molecule?
Answer: Its tissue uptake at 1 h is 2.96 %ID/g.

Question: What about the tissue uptake at 1 h ([5]; large intestine, read-out: Biodistribution, Large intestine) of the same molecule?
Answer: The tissue uptake at 1 h was 0.11 %ID/g.

Question: What about the tissue uptake at 1 h ([5]; liver, read-out: Biodistribution, Liver) of the same molecule?
Answer: Its tissue uptake at 1 h is 0.2 %ID/g.

Question: And the tissue uptake at 1 h ([5]; lung, read-out: Biodistribution, Lung)?
Answer: The tissue uptake at 1 h was 0.18 %ID/g.

Question: And the tissue uptake at 1 h ([5]; muscle, read-out: Biodistribution, Muscle)?
Answer: The tissue uptake at 1 h was 0.03 %ID/g.

Question: And the tissue uptake at 1 h ([5]; pancreas, read-out: Biodistribution, Pancreas)?
Answer: The tissue uptake at 1 h was 0.07 %ID/g.

Question: What about the tissue uptake at 1 h ([5]; small intestine, read-out: Biodistribution, Small intestine) of the same molecule?
Answer: The tissue uptake at 1 h was 0.34 %ID/g.

Question: What about the tissue uptake at 1 h ([5]; spleen, read-out: Biodistribution, Spleen) of the same molecule?
Answer: The tissue uptake at 1 h was 0.07 %ID/g.

Question: What about the tissue to tissue ratio at 1 h ([5]; tumor/blood) of the same molecule?
Answer: Its tissue to tissue ratio at 1 h is 2.05.

Question: What about the “In vitro stability in murine plasma, percentage of remained intact radiotracer” value ([6]; 1 h, 60 min) of the same molecule?
Answer: The value was 80.1 ± 0.8%.

Question: What about the remaining at 10 min ([6]; mouse, plasma, In vitro stability in murine plasma, percentage of remained intact radiotracer, 10 min) of the same molecule?
Answer: Its remaining at 10 min is 96.2 ± 1.1%.

Question: What about the remaining at 1 h [6, 9] of the same molecule?
Answer: The remaining at 1 h was over 75%.

Question: What about the “In vitro stability in PBS pH 7.4, percentage of remained intact radiotracer” value ([7]; 3 h) of the same molecule?
Answer: The value was 96.9 ± 0.2%.

Question: What about the “In vitro stability in PBS pH 7.4, percentage of remained intact radiotracer” value ([7]; 24 h) of the same molecule?
Answer: Its value is 94.3 ± 0.3%.

Question: And the logP [8]?
Answer: The logP was under -4.

Question: Which remaining at 1 h [6, 9] does the source give for `CC[C@H](C)[C@H](NC(=O)CCNC(=O)CCNC(=O)CN1CCN(CC(=O)O)CCN(CC(=O)O)CCN(CC(=O)O)CC1)C(=O)N1CCC[C@H]1C(=O)N[C@@H](CC(C)C)C(=O)N1CCC[C@H]1C(=O)N1CCC[C@H]1C(=O)N1CCC[C@H]1C(=O)N[C@@H](CCCNC(=N)N)C(=O)N[C@@H](CCCNC(=N)N)C(=O)N1CCC[C@H]1C(=O)N[C@@H](Cc1ccccc1)C(=O)N[C@@H](Cc1ccccc1)C(=O)N[C@@H](CCCCN)C(=O)O` [[^67Ga]25, [^67Ga]Ga-DOTA-ββ-IPLPPPRRPFFK, metal not drawn] ({DOTA-βAla-βAla}-IPLPPPRRPFFK-OH) here?
Answer: Its remaining at 1 h is 26.2 ± 6.7%.

Question: What about the “In vitro stability in PBS pH 7.4, percentage of remained intact radiotracer” value ([7]; 3 h) of the same molecule?
Answer: The value was 94.2 ± 1.7%.

Question: What about the “In vitro stability in PBS pH 7.4, percentage of remained intact radiotracer” value ([7]; 24 h) of the same molecule?
Answer: The value was 93.0 ± 0.4%.

Question: And the logP [8]?
Answer: Its logP is under -4.

Question: Which results are given for `CC[C@H](C)[C@H](NC(=O)[C@@H](C)NC(=O)[C@@H](C)NC(=O)[C@@H](C)NC(=O)[C@@H](C)NC(=O)[C@@H](C)NC(=O)CN1CCN(CC(=O)O)CCN(CC(=O)O)CCN(CC(=O)O)CC1)C(=O)N1CCC[C@H]1C(=O)N[C@@H](CC(C)C)C(=O)N1CCC[C@H]1C(=O)N1CCC[C@H]1C(=O)N1CCC[C@H]1C(=O)N[C@@H](CCCNC(=N)N)C(=O)N[C@@H](CCCNC(=N)N)C(=O)N1CCC[C@H]1C(=O)N[C@@H](Cc1ccccc1)C(=O)N[C@@H](Cc1ccccc1)C(=O)N[C@@H](CCCCN)C(=O)O` [[^67Ga]24, [^67Ga]Ga-DOTA-aaaaa-IPLPPPRRPFFK, metal not drawn] ({DOTA}-[dA][dA][dA][dA][dA]IPLPPPRRPFFK-OH)?
Answer: remaining at 1 h [6, 9]: 41.4 ± 2.5%; In vitro stability in PBS pH 7.4, percentage of remained intact radiotracer ([7]; 3 h): 96.3 ± 1.1%; In vitro stability in PBS pH 7.4, percentage of remained intact radiotracer ([7]; 24 h): 94.0 ± 0.5%; logP [8]: < -4

Question: For IPLPPPRRPFFK, which IC50 (PDGFRβ; affinity for PDGFRβ) is on record?
Answer: The IC50 was 480 nM.

Question: Which results are given for `CC[C@H](C)[C@H](NC(=O)[C@@H](C)NC(=O)[C@@H](C)NC(=O)[C@@H](C)NC(=O)CN1CCN(CC(=O)O)CCN(CC(=O)O)CCN(CC(=O)O)CC1)C(=O)N1CCC[C@H]1C(=O)N[C@@H](CC(C)C)C(=O)N1CCC[C@H]1C(=O)N1CCC[C@H]1C(=O)N1CCC[C@H]1C(=O)N[C@@H](CCCNC(=N)N)C(=O)N[C@@H](CCCNC(=N)N)C(=O)N1CCC[C@H]1C(=O)N[C@@H](Cc1ccccc1)C(=O)N[C@@H](Cc1ccccc1)C(=O)N[C@@H](CCCCN)C(=O)O` [[^67Ga]23, [^67Ga]Ga-DOTA-aaa-IPLPPPRRPFFK, metal not drawn] ({DOTA}-[dA][dA][dA]IPLPPPRRPFFK-OH)?
Answer: remaining at 1 h [6, 9]: 15.7 ± 2.9%; In vitro stability in PBS pH 7.4, percentage of remained intact radiotracer ([7]; 3 h): 95.9 ± 0.7%; In vitro stability in PBS pH 7.4, percentage of remained intact radiotracer ([7]; 24 h): 94.0 ± 0.5%; logP [8]: < -4

Question: Which results are given for `CC[C@H](C)[C@H](NC(=O)CCNC(=O)CCNC(=O)CCNC(=O)CCNC(=O)CN1CCN(CC(=O)O)CCN(CC(=O)O)CCN(CC(=O)O)CC1)C(=O)N1CCC[C@H]1C(=O)N[C@@H](CC(C)C)C(=O)N1CCC[C@H]1C(=O)N1CCC[C@H]1C(=O)N1CCC[C@H]1C(=O)N[C@@H](CCCNC(=N)N)C(=O)N[C@@H](CCCNC(=N)N)C(=O)N1CCC[C@H]1C(=O)N[C@@H](Cc1ccccc1)C(=O)N[C@@H](Cc1ccccc1)C(=O)N[C@@H](CCCCN)C(=O)O` [[^67Ga]26, [^67Ga]Ga-DOTA-ββββ-IPLPPPRRPFFK, metal not drawn] ({DOTA-βAla-βAla-βAla-βAla}-IPLPPPRRPFFK-OH)?
Answer: remaining at 1 h [6, 9]: 33.1 ± 5.7%; In vitro stability in PBS pH 7.4, percentage of remained intact radiotracer ([7]; 3 h): 96.9 ± 0.3%; In vitro stability in PBS pH 7.4, percentage of remained intact radiotracer ([7]; 24 h): 95.4 ± 0.2%; logP [8]: < -4

Question: For “yIPLPPPRRPFFK ([dY]IPLPPPRRPFFK) [yG2, … with tyrosine at the N-terminal for radioiodination]”, which “Affinity for the PDGFRβ relative to IPLPPPSRPFFKY (PDGFR-P1)” value (PDGFRβ; higher affinity) is on record?
Answer: Its value is 16 times.

Question: Which IC50 (PDGFRβ; targeting PDGFRβ) does the source give for “IPLPPPSRPFFK [PDGFR-P1, linear dodecapeptide targeting PDGFRβ identified by biopanning]” here?
Answer: Its IC50 is 1400 nM.
